Assay: Human HepG2 cell viability assay in 384 well format
Format: toxicity, cell-based
Design: dose 125 nL, time 70.5 hour; concentration not given beside the values
Conditions: HepG2 cells, read-out: Inhibition

Row | SMILES | cytotoxicity at 70.5 h [%]
1 | COc1ccc(CN2CCO[C@H]3CN(C4CCCC4)CC[C@H]3C2=O)cc1 | -1.08
2 | CC1(C(=O)NC2CCCC2)CCCN(c2cnccn2)C1 (stereo unspecified) | -6.96
3 | O=c1[nH]c(N2CCCCC2)nc2nccc(-c3ccc4c(c3)OCO4)c12 | -12.9
4 | CCn1cnnc1CNC(=O)N1CCCC1 | 5.61
5 | c1csc(SCC2CN=C(N3CCOCC3)S2)c1 (stereo unspecified) | -3.45
6 | CC(C(=O)Nc1ccnn1C(C)C)N1CCN(Cc2ccon2)CC1 (stereo unspecified) | 1.23
7 | Clc1cccc(-c2cccc(N3CCC(NC4CCOCC4)CC3)c2)c1 | 5.92
8 | CN1CCN(S(=O)(=O)c2cccc(F)c2)c2ccccc21 | 11.9
9 | CC(C)COCC1CN(Cc2ccoc2)Cc2ncn(C)c21 (stereo unspecified) | 14
10 | c1cncc(-c2noc(CN3CCn4c(nnc4C4CC4)C3)n2)c1 | -1.9
11 | CCC(C)Oc1ccccc1CN1Cc2ncccc2C1=O (stereo unspecified) | 0.0852
12 | Cc1ccc(C(=O)N2CCO[C@H]3[C@H](OCC4CCOCC4)CC[C@@H]32)o1 | 11.2
13 | CCOCC(O)CN1CCN(C(=O)c2ccncc2)CC1 (stereo unspecified) | -3.55
14 | CCn1cc(CN2CCCN(C(=O)CCc3ccccc3)CC2)cn1 | -12.3
15 | CCC(CC)c1nnc(NC(=O)N2CCC(C(N)=O)CC2)s1 | -0.155
16 | Cc1cnccc1N1CCCN(C(=O)CCCc2cn[nH]c2)CC1 | 2.95
17 | Cc1nc(CN(C)C2CCN(CC3CCCCC3)C2)no1 (stereo unspecified) | -11.6
18 | NC(=O)c1cccc(CN2CCc3c(ncn3C3CC3)C2)c1 | 23.7
19 | COCCCC(=O)Nc1[nH]nc(-c2ccncc2)c1C | -3.19
20 | O=C(O)[C@@H]1CN(Cc2ccc3nsnc3c2)C[C@H]1c1ccncc1 | 6.98
21 | Cc1ccsc1C(=O)N1CC2CC1(C(=O)NCC1CC1)C2 | -16.8
22 | CCN(CC)CCNC(=O)c1cc(OC)c2ccoc2c1 | -5.95
23 | Cc1noc(C)c1CC(=O)N1CCC(c2ccn3nccc3n2)CC1 | 0.22

Row | SMILES | cytotoxicity at 70.5 h [%]
24 | O=C(c1nc2c(o1)CN(CC1CCC1)C2)N1CCCC1 | 10.5
25 | N#CCc1ccc(OCC(=O)NS(=O)(=O)c2ccc(Cl)s2)cc1 | -7.69
26 | Cc1nccn1CCCC(=O)N1CCCN(c2cccnn2)CC1 | -2.35
27 | COc1ccc(CNCC(C)Oc2ccccn2)cc1Br (stereo unspecified) | -18.5
28 | CC(Cn1cccn1)NC(=O)c1ccsc1 (stereo unspecified) | -11.4
29 | CCOC[C@@H]1CC[C@H]2[C@H](CCN2Cc2c(C)noc2C)O1 | -0.0549
30 | COc1ccccc1S(=O)(=O)N1CCN(C)[C@@H]2CS(=O)(=O)C[C@@H]21 | 24.4
31 | COc1ccc(OC)c(-c2nc(CN(C)Cc3nonc3C)c(C)o2)c1 | 26.4
32 | Cn1cc(CN2CC[C@@H]3[C@@H](CCC(=O)N3CCC3=CCCCC3)C2)cn1 | -4.77
33 | OCC(O)CSCc1cn(-c2ccc(Cl)cc2)nn1 (stereo unspecified) | 0.0879
34 | COc1cccc(-c2cc(-c3nc(CN4CCN(C)CC4)no3)[nH]n2)c1 | 6.39
35 | CC(=O)NCC(=O)Nc1cc(C)n(-c2ccc(Cl)cc2Cl)n1 | -0.82
36 | CC(C)COCCC(=O)Nc1ccc2oc(=O)n(CCN(C)C)c2c1 | 17.6
37 | Cc1cccc(CN2CCC3(CC(C(=O)NCC(C)C)=NO3)C2)c1 (stereo unspecified) | -5.06
38 | c1ccc(-c2cnc(CN3CCn4c(nnc4C4CC4)C3)o2)cc1 | -9.82
39 | CCc1nnc2n1CC(CNCc1nc(C)c(C)o1)CC2 (stereo unspecified) | -2.88
40 | Cn1cc(NC(=O)Cc2ccccc2Br)cc1C(N)=O | -2.69
41 | COCC1CN(Cc2ccoc2)Cc2cn(CC3CCCC3)nc21 (stereo unspecified) | -4.4
42 | Cc1cc(C)n2c(CCCNS(=O)(=O)c3cccs3)nnc2n1 | -10.2
43 | NC(=O)N1CCCC1COC(=O)c1cc(F)ccc1F (stereo unspecified) | -1.3
44 | CCN1CCCC(C)(C(=O)NCCc2nnc(C)[nH]2)C1 (stereo unspecified) | -3.07
45 | COc1ccc(C(=O)N2CCC(Oc3cccc(C)c3)(C(=O)O)CC2)o1 | 5.99
46 | Cc1nnc(N2CCCC(CS(N)(=O)=O)C2)c(C#N)c1C (stereo unspecified) | -2.95

Row | SMILES | cytotoxicity at 70.5 h [%]
47 | O=C(NCCCO)c1nc(-c2ccc3cc[nH]c3c2)no1 | -7.51
48 | Cc1cc(C)c(CNC(=O)NCC(O)c2ccc(Cl)cc2)c(=O)[nH]1 (stereo unspecified) | -4.37
49 | CC(C)NC(=O)c1ccc2nnc(C3CCN(S(C)(=O)=O)C3)n2c1 (stereo unspecified) | -0.738
50 | CCNC(=O)N1CCC(NC(=O)NCCc2cc(F)cc(F)c2)C1 (stereo unspecified) | 1.55
51 | Cc1ccnc(OC[C@]23COC[C@H]2CN(C(=O)c2cnccn2)C3)n1 | 14.9
52 | CC(=O)N1CCC(C(=O)N2CCOC(CC3CCCCC3)C2)CC1 (stereo unspecified) | 24.3
53 | c1cnnc(N2CCCC(NCc3ccc(-n4cccn4)cc3)C2)c1 (stereo unspecified) | -4.64
54 | COC(=O)C1CCN(C(=O)CN2CCN(c3cccc(C)c3)CC2)CC1 | -8.14
55 | CC(C)c1nc(C2CCCN2C(=O)c2ccc(N(C)C)nn2)no1 (stereo unspecified) | 7.67
56 | COc1ccccc1C(C)N(C)Cc1nc2c(cnn2C)c(=O)[nH]1 (stereo unspecified) | -8.94
57 | O=C1CC(c2cccs2)Cc2[nH]c(=O)c(C(=O)NC3CCCC3)cc21 (stereo unspecified) | -12.4
58 | CCN(CC)C(=O)c1ccc(Cl)c(NC(=O)c2cc(C(C)C)on2)c1 | -12.4
59 | CN(C)C(=O)c1cccc(CN2CCN(CC(O)C(C)(C)C)CC2)c1 (stereo unspecified) | -11.5
60 | Cc1ccc(NC(=O)Cn2cc(I)cn2)cc1 | 15.3
61 | CN(CC1CCCN(S(C)(=O)=O)C1)c1cnn(C)c1 (stereo unspecified) | 18.9
62 | O=C1CCC(C(=O)NCCOc2cccc(Cl)c2Cl)CN1 (stereo unspecified) | -13.1
63 | O=C(CSc1ccncc1)N1C[C@H]2CC[C@@H]1CN(Cc1cccnc1)C2 | -2.1
64 | Cc1ccccc1-n1ncc(C(=O)N2CCCC2c2cnn(C)c2)c1C (stereo unspecified) | -13.6
65 | O=C(NCCCN1CCOCC1)c1ccn(-c2ccc3ccccn23)n1 | 23.5
66 | Cc1ccc(CC(=O)N2CCN(CC(O)c3ccccc3)CC2)cn1 (stereo unspecified) | 1.06
67 | CCc1nnc(CN(C)C(=O)C2CC(=O)N(C3CC3)C2)o1 (stereo unspecified) | -6.39
68 | CCSc1cc(C(=O)NCCNC(=O)Cc2ccccc2)ccn1 | -117
69 | COc1ccc2ccccc2c1CNCC1CCS(=O)(=O)C1 (stereo unspecified) | -8.26

Row | SMILES | cytotoxicity at 70.5 h [%]
70 | Cn1cc(C[C@H]2[C@@H](OCC3CC3)CCN2C(=O)c2ccc[nH]2)cn1 | 21.2
71 | CC(C(=O)NCc1ccnc(N(C)C)c1)n1cccn1 (stereo unspecified) | -3.71
72 | O=C(NCC1(CO)CC1)NC(c1nccs1)C1CC1 (stereo unspecified) | -3.86
73 | CCc1nnc(Nc2cccc(C3CCCN(CC(C)(C)C)C3)n2)s1 (stereo unspecified) | -10.7
74 | CCc1c(C)n(CC(C)=O)c2nc3ccccc3n2c1=O | -18.1
75 | Cn1ccnc1CN1CCC2(CC1)CN(CC1CC1)C(=O)CO2 | 12.3
76 | CCN(CC)C(=O)[C@@H]1C[C@@H](n2cc(-c3cccc(OC)c3)nn2)CN1 | -15.1
77 | Cc1cncc(C(=O)N2CCC(Cn3cc(-c4ccsc4)nn3)CC2)c1 | -16.9
78 | CCC[C@@H]1CN(C(=O)c2cc(-c3cccs3)n(C)n2)C[C@H]1N(C)C | -8.43
79 | CC(=O)N(Cc1noc(C)n1)C1CCN(Cc2cnc(C)s2)C1 (stereo unspecified) | -4.39
80 | CC(=O)c1cccc(NC(=O)COc2c(C)n(C)ccc2=O)c1 | -7.44
81 | CC(=O)NCCC1CCCCN1S(=O)(=O)c1cccc(C#N)c1 (stereo unspecified) | -2.49
82 | O=C(NC1CC(F)(F)C1)[C@]12COC[C@H]1CN(Cc1cccnc1)C2 | -10.6
83 | CCS(=O)(=O)N1CCc2c(CN(C)Cc3ccco3)cncc2C1 | -6.14
84 | CCn1c(N)nc2cc(C(=O)N3CC(c4ccccn4)C3)cnc21 | -5.92
85 | Cn1cc(C(=O)NC[C@@H]2OC[C@H]3CN(S(C)(=O)=O)CC[C@H]32)cn1 | -3.04
86 | COCC(=O)NCc1cc(=O)n2c(n1)CN(C)CCC2 | -3.22
87 | c1cncc(-c2ccnn2CN2CCOCC2)c1 | 0.876
88 | CCOCC(=O)NC1(c2cccc(Cl)c2)CC1 | -8.22
89 | CNC(=O)N1CC[C@@H]2CN(Cc3cccnc3)S(=O)(=O)[C@@H]2CC1 | -17.6
90 | NC(=O)NC(=O)CCN1CCC(C(=O)c2cc(F)ccc2F)CC1 | -12.1
91 | Nc1nc(NCCc2[nH]nc3c2CCCC3)cc(N2CCOCC2)n1 | -6.18
92 | CC(C)Nc1nc(-c2ccccc2)nc2c1CCN(C(=O)CC#N)CC2 | -3.92

Row | SMILES | cytotoxicity at 70.5 h [%]
93 | C=C(C)CNCC1(O)CCCN(Cc2ccc(F)c(F)c2)C1=O (stereo unspecified) | -1.61
94 | COCCn1c(C(=O)NC(C(N)=O)C(C)C)cc2ccccc21 (stereo unspecified) | -6.02
95 | CCn1ncc(S(=O)(=O)N2CCCC3(CC=CNC3=O)C2)c1C (stereo unspecified) | -1.6
96 | CC(C)CN1CCC(c2nc3ccc(NC(C)C)cn3n2)CC1 | -13.1
97 | Cc1ccc(OCCC(=O)N(C)CCC#N)cc1C | -7.6
98 | c1c[nH]c(CN2CCC3(CC2)COCCN(CCN2CCCC2)C3)c1 | -10.3
99 | Cc1nc(CN2CCN(C(=O)COCc3ccccc3)CC2)no1 | -9.26
100 | O=C(c1ccncc1)N1CCN2C[C@H](Oc3cncnc3)C[C@H]2C1 | 1.56
101 | COc1ncccc1C(=O)N1CC[C@H]2C[C@H](c3ccncn3)O[C@@H]2C1 | -14.1
102 | Cc1cccc(N(CCC#N)S(=O)(=O)CC2CCCCO2)c1 (stereo unspecified) | 34.5
103 | CCCc1n[nH]c(C2CN(C(=O)Cn3ccccc3=O)CCO2)n1 (stereo unspecified) | -4.93
104 | O=C(c1ccncc1)N1CCc2onc(CN3CCCC3)c2C1 | 18.4
105 | COc1ccc(CN2C[C@H]3CC[C@](O)(c4ccc(C)cn4)[C@H]3C2)c(F)c1 | -0.817
106 | CC(C)CCNC(=O)c1ccc(-c2ccco2)[nH]c1=O | -1.63
107 | NCCc1cn(Cc2ccccn2)c2ccccc12 | -5.82
108 | Cc1cc(N2CCC3(CCCN(CCO)C3=O)C2)nc(C)c1C#N (stereo unspecified) | -18.8
109 | CN(Cc1ccc(Cl)s1)C(=O)CN1CC(n2cccn2)C1 | -14.6
110 | N#Cc1cccc(Oc2ccc(CN3CCCC3)cc2Cl)n1 | 18.1
111 | CC1CNC(=O)CCN1Cc1cc(O)c2cccc(F)c2n1 (stereo unspecified) | -6.4

Source: ChEMBL document CHEMBL3507680, “University of Dundee, Gates Library screen for HepG2 cell viability”
